Where a name gives a salt, the structure may show the parent alone.
Compound | melting point
CN1CCN(c2cccc3c(S(=O)(=O)c4ccccc4C(F)(F)F)c[nH]c23)CC1 [compound 508, 7-(4-methyl-piperazin-1-yl)-3-(2-trifluoromethyl-benzenesulfonyl)-1H-indole] | 237.1 to 241.5 °C
Cn1cc(S(=O)(=O)c2ccccc2)c2cccc(N3CCNCC3)c21 (as salt: hydrochloride) [compound 401, 3-benzenesulfonyl-1-methyl-7-piperazin-1-yl-1H-indole hydrochloride] | 249 to 250 °C
Cc1[nH]c2c(N3CCNCC3)cccc2c1S(=O)(=O)c1ccc(Cl)cc1 [compound 602, 3-(4-chlorobenzenesulfonyl)-2-methyl-7-piperazin-1-yl-1H-indole] | 118 to 120 °C
O=S(=O)(c1ccccc1)c1c[nH]c2c(C3CCNCC3)cccc12 [compound 301, 3-benzenesulfonyl-7-piperidin-4-yl-1H-indole] | 186 to 189.5 °C
Cn1cc(S(=O)(=O)c2cccc(C(F)(F)F)c2)c2cccc(N3CCNCC3)c21 [compound 406, 1-methyl-7-piperazin-1-yl-3-(3-trifluoromethyl-benzenesulfonyl)-1H-indole] | 279 to 280 °C
O=S(=O)(c1ccccc1)c1c[nH]c2c(N3CCN(CC4CC4)CC3)cccc12 [compound 511, 3-benzenesulfonyl-7-(4-cyclopropylmethyl-piperazin-1-yl)-1H-indole] | 280 to 282 °C
Cn1cc(S(=O)(=O)c2ccccc2Cl)c2cccc(N3CCNCC3)c21 [compound 407, 3-(2-chloro-benzenesulfonyl)-1-methyl-7-piperazin-1-yl-1H-indole] | 295 to 297 °C

The remaining lines, values ahead:

melting point | Compound
289 to 291 °C | O=S(=O)(c1ccc(F)cc1)c1c[nH]c2ccc(N3CCNCC3)cc12 [compound 207, 3-(4-fluoro-benzenesulfonyl)-5-piperazin-1-yl-1H-indole]
254 to 264 °C (dec.) | O=S(=O)(c1ccccc1)c1c[nH]c2ccc(N3CCNCC3)cc12
282 to 286.4 °C | O=S(=O)(c1ccc(Cl)cc1)c1c[nH]c2ccc(N3CCNCC3)cc12 [compound 204, 3-(4-chloro-benzenesulfonyl)-5-piperazin-1-yl-1H-indole]

— patent publication US6787535B2, “Indole derivatives with 5HT6 receptor affinity” (Syntex (U.S.A.) LLC, priority 2001, dated 2004)
